Assay results as given in US11976057B2, “MrgX2 antagonists” (GlaxoSmithKline Intellectual Property Development Limited, priority 2020, dated 2024).

Target: T1, human MRGPRX2 (Homo sapiens, UniProt Q96LB1)
T1 sequence (Q96LB1 1-330): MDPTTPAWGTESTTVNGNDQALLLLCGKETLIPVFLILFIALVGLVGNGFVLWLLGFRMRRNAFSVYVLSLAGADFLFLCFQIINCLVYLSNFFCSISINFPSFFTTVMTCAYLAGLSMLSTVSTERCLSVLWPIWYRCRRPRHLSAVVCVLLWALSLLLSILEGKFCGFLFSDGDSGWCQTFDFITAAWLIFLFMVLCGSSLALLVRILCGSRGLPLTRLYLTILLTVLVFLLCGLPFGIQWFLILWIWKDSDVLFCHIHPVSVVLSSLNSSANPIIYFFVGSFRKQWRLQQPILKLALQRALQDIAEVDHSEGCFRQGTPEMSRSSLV
Assay: Ca2+ mobilization assay (FLIPR TETRA): inhibition of Cortistatin-14 mediated MRGPRX2 activation

Structure (SMILES) | IC50 [nM]
C[C@@H](C(=O)Nc1ccc(Oc2ccc(F)cc2)cn1)N1CCC(F)(F)C(c2c[nH]c(=O)c(C(O)C(F)(F)F)c2)C1 (stereo partly drawn) [Example 211, (2S)-2-(4,4-difluoro-3-(6-oxo-5-(2,2,2-trifluoro-1-hydroxyethyl)-1,6-dihydropyridin-3-yl)piperidin-10-yl)-N-(5-(4-fluorophenoxy)pyridin-2-yl)propanamide] | ≤ 10
C[C@@H](C(=O)Nc1ccc(Oc2ccc(F)cc2F)cn1)[C@H]1CCC(F)(F)[C@@H](c2ccc(=O)[nH]c2)C1 [Example 280, (R)-2-((1S,3R)-4,4-difluoro-3-(6-oxo-1,6-dihydropyridin-3-yl)cyclohexyl)-N-(5-(2,4-difluorophenoxy)pyridin-2-yl)propanamide] | ≤ 10
C[C@@H](C(=O)Nc1ccc(Cl)cn1)N1CCC(F)(F)[C@@H](c2c[nH]c(=O)c(N)n2)C1 [Example 107, (S)-2-((R)-3-(6-amino-5-oxo-4,5-dihydropyrazin-2-y1)-4,4-difluoropiperidin-l-y1)-N-(5-chloropyridin-2-yl)propanamide] | 100 to 3160
C[C@@H](C(=O)Nc1ccc(C(=O)OC2CCC2)cn1)N1CCC(F)(F)[C@@H](c2ccc(=O)[nH]c2)C1 [Example 37, cyclobutyl 6-((S)-2-((S)-4,4-difluoro-3-(6-oxo-1,6-dihydropyridin-3-yl)piperidin-1-yl)propanamido) nicotinate] | 100 to 3160
C[C@@H](C(=O)Nc1ccc(Oc2ccc(F)cc2)cn1)N1CCC(F)(F)[C@@H](c2c[nH]c(=O)c(CN)c2)C1 [Example 204, (S)-2-((S)-3-(5-(aminomethyl)-6-oxo-1,6-dihydropyridin-3-yl)-4,4-difluoropiperidin-1-yl)-N-(5-(4-fluorophenoxy)pyridin-2-yl)propanamide] | ≤ 10
CC(C)(C(=O)Nc1ccc(OCC2CC2)cn1)N1CCC(F)(F)[C@@H](c2ccc(=O)[nH]c2)C1 (single isomer, unassigned) [Example 183] | 100 to 3160
CC(C(=O)Nc1ccc(Oc2ccc(F)cc2F)cn1)N1CCC(F)(F)C(c2ccnc(CN)c2)C1 (mixture of isomers) [Example 264, 2-(3-(2-(aminomethyl)pyridin-4-yl)-4,4-difluoropiperidin-1-yl)-N-(5-(2,4-difluorophenoxy)pyridin-2-yl)propanamide] | ≤ 10
C[C@@H](C(=O)Nc1ccc(OCC2CC2)cn1)N1CCC(F)(F)[C@@H](c2c[nH]c(=O)c(N)n2)C1 [Example 105, (S)-2-((R)-3-(6-amino-5-oxo-4,5-dihydropyrazin-2-y1)-4,4-difluoropiperidin-l-y1)-N-(5-(cyclopropylmethoxy)pyridin-2-yl)propanamide] | 10 to 100
C[C@@H](C(=O)Nc1ccc(Oc2ccccn2)cn1)N1CCC(F)(F)[C@@H](c2ccc(=O)[nH]c2)C1 [Example 61, (S)-2-((S)-4,4-difluoro-3-(6-oxo-1,6-dihydropyridin-3-yl)piperidin-1-yl)-N-(5-(pyridin-2-yloxy)pyridin-2-yl)propanamide] | 10 to 100
C[C@@H](C(=O)Nc1ccc(Oc2ccc(F)cc2F)cn1)N1CCC(F)(F)[C@@H](c2c[nH]c(=O)c(CS(C)(=O)=O)c2)C1 [Example 216, (S)-2-((S)-4,4-difluoro-3-(5-((methylsulfonyl)methyl)-6-oxo-1,6-dihydropyridin-3-yl)piperidin-1-yl)-N-(5-(2,4-difluorophenoxy)pyridin-2-yl)propanamide] | ≤ 10
C[C@@H](C(=O)Nc1ccc(OCC2CC2)cn1)N1CCC[C@@H](c2c[nH]c(=O)cc2C(F)(F)F)C1 (single isomer, unassigned) [Example 169] | 100 to 3160
C[C@@H](C(=O)Nc1ccc(Oc2ccc(F)cc2F)cn1)N1CCC[C@@H](c2cc[n+]([O-])cc2)C1 [Example 182, 4-((S)-1-((S)-1-((5-(2,4-difluorophenoxy)pyridin-2-yl)amino)-1-oxopropan-2-yl)piperidin-3-yl)pyridine 1-oxide] | ≤ 10
CC(=O)NCc1cc([C@H]2CN([C@@H](C)C(=O)Nc3ccc(Oc4ccc(F)cc4)cn3)CCC2(F)F)c[nH]c1=O (single isomer, unassigned) [Example 245] | ≤ 10
C[C@@H](C(=O)Nc1ccc(Cl)cn1)N1CCC[C@@H](c2c[nH]c(=O)c(C3CC3)c2)C1 (single isomer, unassigned) [Example 179] | 100 to 3160
C[C@@H](C(=O)Nc1cnc(Oc2ccccc2)cn1)N1CCC(F)(F)[C@@H](c2c[nH]c(=O)c(CN)c2)C1 [Example 207, (S)-2-((S)-3-(5-(aminomethyl)-6-oxo-1,6-dihydropyridin-3-yl)-4,4-difluoropiperidin-1-yl)-N-(5-phenoxypyrazin-2-yl)propanamide] | 10 to 100
C[C@@H](C(=O)Nc1ccc(Oc2ncc(F)cc2F)cn1)N1CCC(F)(F)[C@@H](c2c[nH]c(=O)c(CN3CCOCC3)c2)C1 [Example 228, (S)-2-((S)-4,4-difluoro-3-(5-(morpholinomethyl)-6-oxo-1,6-dihydropyridin-3-yl)piperidin-1-yl)-N-(5-((3,5-difluoropyridin-2-yl)oxy)pyridin-2-yl)propanamide] | 10 to 100

Structure (SMILES) | IC50 [nM]
C[C@@H](C(=O)Nc1ccc(F)cn1)N1CCC(F)(F)[C@@H](c2c[nH]c(=O)cn2)C1 [Example 135, (S)-2-((R)-4,4-difluoro-3-(5-oxo-4,5-dihydropyrazin-2-yl)piperidin-1-yl)-N-(5-fluoropyridin-2-yl)propanamide] | 10 to 100
Cc1cc([C@@H]2CN([C@H](C)C(=O)Nc3ccc(Oc4ccc(F)cc4)cn3)CCC2(F)F)cc[n+]1[O-] (racemic) [Example 218, 4-((R)-4,4-difluoro-1-((R)-1-((5-(4-fluorophenoxy)pyridin-2-yl)amino)-1-oxopropan-2-yl)piperidin-3-yl)-2-methylpyridine 1-oxide and 4-((S)-4,4-difluoro-1-((S)-1-((5-(4-fluorophenoxy)pyridin-2-yl)amino)-1-oxopropan-2-yl)piperidin-3-yl)-2-methylpyridine 1-oxide] | 10 to 100
C[C@@H](C(=O)Nc1ccc(F)cn1)N1CCC(F)(F)[C@@H](c2ccc(=O)n(CC(F)F)c2)C1 [Example 193] | ≤ 10
C[C@@H](C(=O)Nc1cnc(Oc2ccc(F)cc2)cn1)N1CCC(F)(F)[C@@H](c2c[nH]c(=O)c(CN)c2)C1 [Example 206, (S)-2-((S)-3-(5-(aminomethyl)-6-oxo-1,6-dihydropyridin-3-yl)-4,4-difluoropiperidin-1-yl)-N-(5-(4-fluorophenoxy)pyrazin-2-yl)propanamide] | 10 to 100
CC(C(=O)Nc1ccc(Oc2ccc(F)cc2)cn1)C1CCC(F)(F)C(c2ccc(=O)[nH]c2)C1 (stereo not shown) [Example 278, 2-(4,4-difluoro-3-(6-oxo-1,6-dihydropyridin-3-yl)cyclohexyl)-N-(5-(4-fluorophenoxy)pyridin-2-yl)propanamide] | ≤ 10
C[C@@H](C(=O)Nc1cnc(Oc2ccc(F)cc2CO)cn1)N1CCC(F)(F)[C@@H](c2ccc(=O)[nH]c2)C1 [Example 272] | 10 to 100
CC(C(=O)Nc1cnc(Oc2ccc(F)cc2)cn1)N1CCC(F)(F)C(c2c[nH]c(=O)c(C#N)c2)C1 (stereo not shown) [Example 250, 2-(3-(5-cyano-6-oxo-1,6-dihydropyridin-3-yl)-4,4-difluoropiperidin-1-yl)-N-(5-(4-fluorophenoxy)pyrazin-2-yl)propanamide] | 100 to 3160
C[C@@H](C(=O)Nc1ccc(OCC2CC2)cn1)N1CCC(F)(F)[C@@](C)(c2ccc(=O)[nH]c2)C1 [Example 163, (S)—N-(5-(cyclopropylmethoxy)pyridin-2-yl)-2-((S)-4,4-difluoro-3-methyl-3-(6-oxo-1,6-dihydropyridin-3-yl)piperidin-1-yl)propanamide] | 100 to 3160
C[C@@H](C(=O)Nc1ccc(Cl)cn1)N1CCC[C@@H](c2cc[n+]([O-])cc2)C1 (single isomer, unassigned) [Example 180] | 3160 to 31600
C[C@@H](C(=O)Nc1ccc(Cl)cn1)N1CCC[C@@H](c2ccc(=O)[nH]c2)C1 [Example 158, (S)—N-(5-chloropyridin-2-yl)-2-((S)-3-(6-oxo-1,6-dihydropyridin-3-yl)piperidin-1-yl)propanamide] | 100 to 3160
C[C@@H](C(=O)Nc1ccc(Oc2ccccc2)nn1)N1CCC(F)(F)[C@@H](c2ccc(=O)[nH]c2)C1 [Example 19, 2-((S)-4,4-difluoro-3-(6-oxo-1,6-dihydropyridin-3-yl)piperidin-1-yl)-N-(6-phenoxy-pyridazin-3-yl)propanamide] | 100 to 3160
C[C@@H](C(=O)Nc1ccc(Oc2ccc(F)cc2)cn1)N1CCC(F)(F)[C@@H](c2c[nH]c(=O)c(N)n2)C1 [Example 108, (S)-2-((R)-3-(6-amino-5-oxo-4,5-dihydropyrazin-2-y1)-4,4-difluoropiperidin-1-y1)-N-(5-(4-fluorophenoxy)pyridin-2-yl)propanamide] | ≤ 10
C[C@@H](C(=O)Nc1ccc(Oc2ccc(F)cn2)cn1)N1CCC(F)(F)[C@@H](c2c[nH]c(=O)c(CO)c2)C1 [Example 157, (S)-2-((S)-4,4-difluoro-3-(5-(hydroxymethyl)-6-oxo-1,6-dihydropyridin-3-yl)piperidin-1-yl)-N-(5-((5-fluoropyridin-2-yl)oxy)pyridin-2-yl)propanamide] | 10 to 100
C[C@@H](C(=O)Nc1ccc(OCC2CC2)nn1)N1CCC(F)(F)[C@@H](c2cc[n+]([O-])c(CC(F)(F)F)c2)C1 [Example 220] | ≤ 10
C[C@@H](C(=O)Nc1ccc(Oc2ccc(F)cc2)cn1)N1CCC(F)(F)[C@@H](c2ccc(=O)[nH]c2)C1 [Example 5, (S)-2-((S)-4,4-difluoro-3-(6-oxo-1,6-dihydropyridin-3-yl)piperidin-1-yl)-N-(5-(4-fluorophenoxy)pyridin-2-yl)propanamide] | ≤ 10
